Results from ChEMBL document CHEMBL5532685 (J Nat Prod, 2024).

Legend:
[1] = target: Programmed cell death protein 1/Programmed cell death 1 ligand 1 (Homo sapiens, UniProt Q15116+Q9NZQ7); test: Inhibition of PD-1/PD-L1 (unknown origin) protein protein interaction; type: protein-complex assay
Procathepsin L = Procathepsin L (Homo sapiens, UniProt P07711); test: Inhibition of human cathepsin L
Prothrombin = Prothrombin (Homo sapiens, UniProt P00734); test: Inhibition of human thrombin
[2] = target: Spike glycoprotein/Angiotensin-converting enzyme 2 (Severe acute respiratory syndrome coronavirus 2, UniProt P0DTC2+Q9BYF1); test: Inhibition of His-tagged SARS-CoV2 USA-WA1/2020 spike-RBD/biotinylated Fc-tagged ACE2 (unknown origin) protein protein interaction incubated for 1 hr by Alphascreen assay
Chain of Spike glycoprotein/Angiotensin-converting enzyme 2 (Q9BYF1 18-805 limits assumed, other chains not shown): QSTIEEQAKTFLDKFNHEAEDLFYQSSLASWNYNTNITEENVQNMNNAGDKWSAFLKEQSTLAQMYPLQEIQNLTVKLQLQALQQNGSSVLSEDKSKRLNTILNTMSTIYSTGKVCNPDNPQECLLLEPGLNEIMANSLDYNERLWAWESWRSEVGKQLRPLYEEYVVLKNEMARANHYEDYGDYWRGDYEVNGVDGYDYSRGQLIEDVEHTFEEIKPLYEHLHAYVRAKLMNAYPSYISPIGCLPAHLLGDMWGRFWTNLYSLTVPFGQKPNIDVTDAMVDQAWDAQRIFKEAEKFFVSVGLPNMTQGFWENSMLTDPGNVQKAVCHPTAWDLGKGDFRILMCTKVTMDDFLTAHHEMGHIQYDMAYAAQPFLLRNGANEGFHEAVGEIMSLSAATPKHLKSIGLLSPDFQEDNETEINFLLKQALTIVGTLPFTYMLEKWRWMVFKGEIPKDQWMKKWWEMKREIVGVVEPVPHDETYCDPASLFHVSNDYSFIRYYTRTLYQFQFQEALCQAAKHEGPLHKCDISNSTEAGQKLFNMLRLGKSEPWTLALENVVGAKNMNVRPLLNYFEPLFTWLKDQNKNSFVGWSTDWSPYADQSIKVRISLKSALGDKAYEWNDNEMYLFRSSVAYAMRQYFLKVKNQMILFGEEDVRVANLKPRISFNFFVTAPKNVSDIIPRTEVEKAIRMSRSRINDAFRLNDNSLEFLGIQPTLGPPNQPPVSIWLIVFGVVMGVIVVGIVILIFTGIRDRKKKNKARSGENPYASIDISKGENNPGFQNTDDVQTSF

[3] = target: Replicase polyprotein 1ab (Severe acute respiratory syndrome coronavirus 2, UniProt P0DTD1); test: Inhibition of SARS-CoV2 MPro using Dabcyl-KTSAVLQSGFRKME-Edans as substrate by fluorescence based analysis

Chain of Programmed cell death protein 1/Programmed cell death 1 ligand 1 (Q15116 whole entry): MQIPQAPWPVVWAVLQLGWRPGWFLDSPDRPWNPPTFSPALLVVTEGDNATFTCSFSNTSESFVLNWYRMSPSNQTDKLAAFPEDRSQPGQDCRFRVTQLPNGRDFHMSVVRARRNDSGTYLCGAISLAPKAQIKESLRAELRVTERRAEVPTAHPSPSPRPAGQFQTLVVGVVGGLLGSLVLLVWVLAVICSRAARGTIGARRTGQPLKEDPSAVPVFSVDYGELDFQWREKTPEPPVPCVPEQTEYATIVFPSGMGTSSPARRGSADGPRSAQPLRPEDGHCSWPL
Chain of Programmed cell death protein 1/Programmed cell death 1 ligand 1 (Q9NZQ7 whole entry): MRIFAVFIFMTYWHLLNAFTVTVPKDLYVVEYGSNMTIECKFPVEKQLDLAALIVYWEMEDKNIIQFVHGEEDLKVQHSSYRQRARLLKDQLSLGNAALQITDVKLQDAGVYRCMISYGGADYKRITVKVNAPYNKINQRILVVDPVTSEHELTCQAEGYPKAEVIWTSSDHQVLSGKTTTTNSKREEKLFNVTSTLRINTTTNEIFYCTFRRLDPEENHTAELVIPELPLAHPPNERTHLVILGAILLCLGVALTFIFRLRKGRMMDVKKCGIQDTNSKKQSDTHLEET
Chain of Procathepsin L (P07711 whole entry): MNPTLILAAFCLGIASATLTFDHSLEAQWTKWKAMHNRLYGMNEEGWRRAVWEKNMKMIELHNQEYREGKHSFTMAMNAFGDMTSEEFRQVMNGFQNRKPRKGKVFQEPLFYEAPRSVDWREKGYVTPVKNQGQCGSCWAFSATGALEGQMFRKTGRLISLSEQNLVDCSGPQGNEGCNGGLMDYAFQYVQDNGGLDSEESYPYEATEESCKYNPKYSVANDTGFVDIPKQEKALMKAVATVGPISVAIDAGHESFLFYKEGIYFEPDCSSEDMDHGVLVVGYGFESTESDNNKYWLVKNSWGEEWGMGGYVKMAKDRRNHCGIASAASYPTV

Row | SMILES | IC50 [1] | IC50 (Procathepsin L) | IC50 (Prothrombin) | IC50 [2] | IC50 [3]
1 | CCCCCCCCCC(C)CCC(C)C(=O)O (configuration not stated) | > 390 µM | 218 µM | > 390 µM | – | –
2 | CCCCCCCCCC(C)CCC(C)C(=O)OC (configuration not stated) | – | – | – | > 370 µM | > 370 µM
3 | CCCCCCCCCC(C)CCC(C)C(=O)OCc1ccccc1 (configuration not stated) | – | – | – | > 289 µM | > 289 µM
